# Laboratory results from patent publication US8673955B2, “Imidazole derivatives as fructose-1,6-bisphosphatase inhibitors and pharmaceutical compositions containing them” (Merck Patent GmbH, priority 2005, dated 2014).
# Read-outs that look alike come from different tables or passages of the source.
# Experiments:
# [1] = target: T1, human liver recombinant Fructose-1,6-bisphosphatase (Homo sapiens, UniProt P09467); experiment: Inhibition of human liver recombinant fructose-1,6-bisphosphatase, coupled spectrophotometric enzyme assay; type: biochemical
# T1 sequence (P09467 1-338): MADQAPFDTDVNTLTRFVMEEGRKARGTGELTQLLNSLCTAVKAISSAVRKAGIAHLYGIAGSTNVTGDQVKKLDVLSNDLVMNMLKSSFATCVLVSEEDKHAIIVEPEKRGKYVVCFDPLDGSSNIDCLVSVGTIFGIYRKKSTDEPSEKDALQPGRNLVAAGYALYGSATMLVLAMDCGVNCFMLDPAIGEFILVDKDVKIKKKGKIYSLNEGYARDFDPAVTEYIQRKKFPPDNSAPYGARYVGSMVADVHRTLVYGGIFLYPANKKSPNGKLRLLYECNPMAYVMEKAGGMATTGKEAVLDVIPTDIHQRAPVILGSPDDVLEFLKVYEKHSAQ
# Description: Enzymatic activity was measured spectrophotometrically in reactions that coupled the formation of product (fructose 6-Phosphate) to the reduction of NADP+, using phosphoglucoisomerase (PGI) and glucose 6-phosphate dehydrogenase (G6PDH) as the coupling enzymes.
# Reaction mixtures (250 μl) were made up in 96-well microtitre plates, and consisted of 20 mM triethanolamine, pH 7.5, 2 mM MgCl2, 0.1 mM EDTA, 40 mM ammonium sulfate, 0.5 mM NADP, 1 U/ml G6PDH, 1 U/ml PGI and 0.167 mM substrate (Fructose 1,6-bisphosphate). The inhibitors were prepared at 10^-2 M in DMSO 100% and tested at 10^-5 M (DMSO 0.1%).
# Reactions were started by the addition of the human liver recombinant Fructose-1,6-bisphosphatase and were monitored for 30 minutes at 340 nm in a Tecan Plate Reader (Room temperature).
# [2] = test system: primary culture of rat hepatocytes; experiment: Hepatic glucose production in primary culture of rat hepatocytes (DHA as gluconeogenic precursor); type: cell-based; settings: 100 μM compound; 3 h incubation with DHA; control without compound = 100%
# Description: Effects of the compounds previously described on hepatic glucose production in primary culture of rat hepatocytes.
# Hepatocytes were isolated from normal Wistar rats in overnight fasted condition by collagenase perfusion as described by Seglen (Methods Cell Biol., (1975); 13, 29-83). Cell viability was assessed by the trypan blue exclusion test. The isolated hepatocytes were suspended in William's medium containing 10% fetal bovine serum in 6 well plates. After cell attachment (4 h) the medium was changed to remove cellular debris and replaced by serum-free minimum essential medium without glucose and the hepatocytes were cultured for 16-18 h (37° C.; 5%, CO2). At the end of the culture and after removing the medium, glucose production was assessed by incubating hepatocytes for 3 h in KREBS buffer supplemented with dihydroxyacetone (DHA) as a gluconeogenic precursor in the presence or not of the different compounds previously described. After the 3 h incubation time, the amount of glucose in the buffer was assayed by a glucose oxidase method (GOD). The total amount of cellular protein per well was measured by the method of Lowry. The results were expressed as nanomoles of glucose produced per mg cell protein. The activity of the tested compounds was expressed as % of control glucose production in presence of DHA and without compound (100%).
# [3] = stated in method text, read-out: IC50 for reference inhibitors of Fructose-1,6-bisphosphatase
# [4] = 0.167 mM fructose 1,6-bisphosphate, pH 7.5, room temperature, read-out: Inhibition of human F-1,6-Bpase IC50
SMILES,"IC50 [1, 4] [µM]",Hepatic glucose production (rat hepatocytes) % of control at 100 μM [2],"IC50 [1, 3] [µM]"
"O=P(O)(O)OC[C@H]1O[C@@](CO)(OP(=O)(O)O)[C@@H](O)[C@@H]1O [Fructose-2,6-Bisphosphate, reference compound]",,,~35
"Nc1ncnc2c1ncn2[C@@H]1O[C@H](COP(=O)(O)O)[C@@H](O)[C@H]1O [AMP, reference compound]",,,~10
"O=C(O)c1ccc(Cn2cc(COCc3cccc(-c4ccccc4)c3)nc2-c2ccc(Cl)s2)cc1 [Example 20, 4-[4-(Biphenyl-3-ylmethoxymethyl)-2-(5-chlorothiophen-2-yl)imidazol-1-ylmethyl]benzoic acid]",70.2,10 % of control,

# Now from value to compound, other results behind:
"IC50 [1, 4] [µM]",Hepatic glucose production (rat hepatocytes) % of control at 100 μM [2],SMILES,"IC50 [1, 3] [µM]"
51.2,44 % of control,"Cc1nc(-c2ccc3ccc(COCc4cn(Cc5ccc(C(=O)O)cc5)c(-c5ccc(Cl)s5)n4)cc3c2)no1 [Example 26, 4-{2-(5-Chlorothiophen-2-yl)-4-[7-(5-methyl-[1,2,4]-oxadiazol-3-yl)naphthalen-2-ylmethoxymethyl]imidazol-1-ylmethyl}benzoic acid]",
88.3,61 % of control,"O=C(O)c1ccc(Cn2cc(COCc3ccc(Cl)cc3)nc2-c2ccc(Br)cc2)cc1 [Example 47, 4-[2-(4-Bromophenyl)-4-(4-chlorobenzyloxymethyl)imidazol-1-ylmethyl]benzoic acid]",
